Data published in patent US8309606B2, “Compounds for use in the treatment of autoimmune diseases, immuno-allergical diseases and organ or tissue transplantation rejection” (Novaremed Limited, priority 2002, dated 2012).

System: spleen cells±ConA
Assay: Proliferation responses of splenocytes ±Con A, [3H]thymidine incorporation
Type: cell-based, mice
Conditions: for Con A1 / Con A2 / No Con A: incorporated radioactivity
Procedure: Spleen cells obtained from native or concanavalin A (Con A)-treated mice were examined in-vitro for their response to T-cell-dependent mitogens. Cells were plated in quadruplicate in 96-well, flat-bottom, microtiter plates (4×10^5 cells/0.2 ml/well) in RPMI-1640 medium supplemented with 5% heat inactivated FCS, 2 mM L-glutamine, 100 U/ml penicillin, […] streptomycin and various concentrations of compound 10 ([…]). All plates were incubated for 48 h in humidified atmosphere of 5% CO2 in air at 37° C., and then pulsed for 18 h with […] ^3[H] thymidine. Cells from each microculture were harvested on fiberglass filters using a multiharvester, and incorporated radioactivity was measured using standard scintillation techniques.

CC(CO)COCC(C)OCC(C)OCC(C)OCC(C)OCC(C)OCC(C)OCC(C)OCC(C)OCC(C)OCC(C)OCC(C)OCC(C)OCC(C)OCC(C)OCC(C)OCC(C)OCC(Cc1ccccc1)NC(=O)CCc1ccc(O)cc1 (stereo not shown) [Compound 10]
Con A1 (100 pg/ml): 1280
Con A2 (100 pg/ml): 3481
No Con A (100 pg/ml): 271
Con A1 (1 ng/ml): 733
Con A2 (1 ng/ml): 3609
No Con A (1 ng/ml): 284
Con A1 (100 ng/ml): 880
Con A2 (100 ng/ml): 2489
No Con A (100 ng/ml): 274
Con A1 (1 μg/ml): 986
Con A2 (1 μg/ml): 2156
No Con A (1 μg/ml): 333
Con A1 (100 μg/ml): 598
Con A2 (100 μg/ml): 1380
No Con A (100 μg/ml): 170
effect on the proliferation of the splenocytes (incubation with compound (Table 1)): significant inhibition
